Data from PubChem BioAssay (NCI).
Values joined by “and” are separate entries in the source; they are usually repeats but may differ in a detail not shown here. Equal entries are not always repeated.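 Following 48 hours of exposure in 96-well plates, responses at five concentrations were used to interpolate endpoints linearly. GI50 = concentration required for 50% inhibition of growth. TGI marks complete inhibition of growth.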 Active and inactive are the calls of the source. No stated cut-off is given here; in the data, active means GI50 below about 0.43 µM; inactive means the rest.

How the values were obtained:
Assay in all cases: NCI-60 cell line screen, 48 h
DMS 114 small cell lung = test system: DMS 114 small cell lung
SNB-78 CNS = test system: SNB-78 CNS
XF 498 CNS = test system: XF 498 CNS
KM20L2 colon = test system: KM20L2 colon
DLD-1 colon = test system: DLD-1 colon
HS 578T breast = test system: HS 578T breast
DU-145 prostate = test system: DU-145 prostate
MDA-MB-435 = test system: MDA-MB-435
BT-549 breast = test system: BT-549 breast

Compound | TGI (DMS 114 small cell lung) | TGI (SNB-78 CNS) [µM] | TGI (XF 498 CNS) | TGI (KM20L2 colon) | TGI (DLD-1 colon) | TGI (HS 578T breast) | TGI (DU-145 prostate) | TGI (MDA-MB-435) | TGI (BT-549 breast) | further results
CCOC(=O)c1[nH]c(COC(C)=O)c2c1CCCCCCCCCC2 | > 100 µM | > 100 | > 100 µM | > 100 µM | > 100 µM | – | – | – | – | –
NC(N)=NS(=O)(=O)c1ccc(Nc2c3ccccc3nc3c(C(=O)Nc4ccc(S(N)(=O)=O)cc4)cccc23)cc1 | > 100 µM | > 100 | 69.8 µM | > 100 µM | > 100 µM | – | – | – | – | –
O=Cc1c(O)c(C(=O)Nc2ccc3[nH]c(=O)[nH]c3c2)cc2ccccc12 | > 100 µM | > 100 | – | > 100 µM | > 100 µM | – | – | – | – | –
CC1(C)C2C=CC1C(=O)CC2 (configuration not stated) | – | > 100 | > 100 µM | > 100 µM | > 100 µM | – | – | – | – | –
Cc1cc(C)cc(NC(N)=S)c1 | > 100 µM | > 100 | > 100 µM | > 100 µM | > 100 µM | – | – | – | – | –
Cc1cc(Cl)ccc1NC(=O)CC1SC(=Nc2ccccc2Cl)NC1=O (configuration not stated) | 67.5 µM | > 100 | > 100 µM | 88.2 µM | > 100 µM | – | – | – | – | –
Cc1cccc(NC(=O)c2cccc([N+](=O)[O-])c2O)c1C | > 100 µM | > 100 | 61 µM | 83.2 µM | > 100 µM | > 100 µM | > 100 µM | > 100 µM | > 100 µM | –
COC(=O)Nc1nc2ccc(Br)cc2[nH]1 | > 100 µM | > 100 | 86.5 µM | 64.1 µM | > 100 µM | – | – | – | – | –
Cc1cccc(C)c1NC(=O)C(=O)Nn1c(NN)nc2ccccc2c1=O | > 100 µM | > 100 | – | > 100 µM | – | – | – | – | – | –
COc1cccc(NC(=O)/C(Cc2nc3ccccc3nc2C)=N/NC(=O)C[n+]2ccccc2)c1 | > 100 µM | > 100 | > 100 µM | > 100 µM | > 100 µM | – | – | – | – | –
CC(C)OP(=O)(NC(=S)c1ccccc1)OC(C)C | > 100 µM | > 100 | > 100 µM | > 100 µM | > 100 µM | – | – | – | – | –
Cn1cc2ccccc2c1-c1nc(F)nc(OCC(=O)[C@H]2CCC3[C@@H]4CCC5=CC(=O)CC[C@]5(C)C4[C@@H](O)C[C@@]32C)n1 (some centres not stated) | 22.5 µM | 47.3 | 21.9 µM | > 57 µM | 22.5 µM | – | – | – | – | –
C=C(c1ccccc1)[C@@]1(O)CC[C@@H]1N(CC#N)Cc1ccccc1 | 34.3 µM | > 85.2 | – | > 100 µM | 36.4 µM | 65 µM | > 100 µM | 47.5 µM | 37.1 µM | –
O=c1cccccc1[O-].O=c1cccccc1[O-].O=c1cccccc1[O-].[La+3] | – | 86.9 | – | > 100 µM | > 100 µM | – | – | – | – | GI50 (SNB-78 CNS): 10.5 µM; GI50 (KM20L2 colon): 17 µM; GI50 (DLD-1 colon): 22.7 µM
CC(=O)OCC1OC(n2c(-c3ccc(C)cc3)cc(-c3ccccc3)c(C#N)c2=O)C(OC(C)=O)C(OC(C)=O)C1OC(C)=O (configuration not stated) | > 100 µM | > 100 | > 100 µM | > 100 µM | > 100 µM | – | – | – | – | –
S=P(N1CC1)(N1CC1)N1CC1 | 36.1 µM and 249 µM | 960 | 35.8 µM and 230 µM | 62 µM and 464 µM | 77.2 µM and 682 µM | 913 µM and 962 µM | 520 µM and 97.8 µM | 403 µM and 509 µM | 507 µM and 445 µM | GI50 (DMS 114 small cell lung): 5.78 µM; GI50 (HS 578T breast): 534 µM; GI50 (SNB-78 CNS): 46.1 µM; GI50 (DU-145 prostate): 11.9 µM; GI50 (XF 498 CNS): 13.2 µM; GI50 (MDA-MB-435): 276 µM; GI50 (KM20L2 colon): 30 µM; GI50 (BT-549 breast): 224 µM; GI50 (DLD-1 colon): 33.2 µM
COC(C)(C)C/C=C/C(C)=C/C=C/C(C)=C\C=C\C(C)=C\C=C\C=C(C)\C=C\C=C(C)\C=C\C=C(C)\C=C\CC(C)(C)OC | > 150 µg/mL | – | – | – | > 150 µg/mL | – | – | – | – | GI50 (DMS 114 small cell lung): > 150 µg/mL; outcome (XF 498 CNS): inactive; outcome (KM20L2 colon): inactive; GI50 (DLD-1 colon): > 150 µg/mL
C=CCC1C(=O)CC2(C)CC(=O)C(CC=C)C12C (configuration not stated) | > 100 µM | > 100 | > 100 µM | > 100 µM | > 100 µM | – | – | – | – | –
NCCCNCCCCNC(=O)C(O)NC(=O)CCCCCCN=C(N)N (configuration not stated) | 581 µM | > 750 | 119 µM | 734 µM | 750 µM | 750 µM and 3990 µM | > 5000 µM | > 3760 µM | 750 µM and 4950 µM | GI50 (HS 578T breast): 2070 µM; GI50 (DU-145 prostate): 2890 µM; GI50 (MDA-MB-435): 1960 µM; GI50 (BT-549 breast): 1540 µM
COc1cc(-c2nc(SCCC(C)C)nc(Nc3ccc(S(N)(=O)=O)cc3)c2C#N)cc(OC)c1OC | – | – | – | – | – | 7.77 µM | > 100 µM | > 100 µM | 6.3 µM | GI50 (HS 578T breast): 2.21 µM; GI50 (DU-145 prostate): 3.47 µM; GI50 (MDA-MB-435): 3.15 µM; GI50 (BT-549 breast): 2.12 µM
CCNC(=O)O[C@H]1CN[C@H](C#Cc2cc3ncnc(Nc4ccc(OCc5cccc(F)c5)c(Cl)c4)c3s2)C1 | – | – | – | – | – | 24.6 µM | > 25 µM | > 25 µM | 9.38 µM | GI50 (HS 578T breast): 4.82 µM; GI50 (DU-145 prostate): 4.72 µM; GI50 (MDA-MB-435): 9.27 µM; GI50 (BT-549 breast): 3.89 µM
O=c1c(-c2ccccc2)coc2cc(OC/C(=N/O)c3ccccc3)ccc12 | – | – | – | – | – | 86 µM | 94.1 µM | > 100 µM | > 100 µM | GI50 (HS 578T breast): 34.4 µM; GI50 (DU-145 prostate): 29 µM; GI50 (MDA-MB-435): 20.5 µM; GI50 (BT-549 breast): 29.8 µM
O=C1C(=O)c2cccnc2-c2ncccc21 | – | – | – | – | – | 1.08 µM | 1.28 µM | 1.02 µM | 1.19 µM | GI50 (HS 578T breast): 0.244 µM; GI50 (DU-145 prostate): 0.239 µM; GI50 (MDA-MB-435): 0.263 µM; GI50 (BT-549 breast): 0.242 µM
NC(N)=NS(=O)(=O)c1ccc(NCCc2c3ccccc3nc3ccccc23)cc1 | > 100 µM | – | – | > 100 µM | > 100 µM | – | – | – | – | –
COc1cc2c(cc1OC)/C(=C\c1ccccc1N)C(=O)OC2 | 34.7 µM | – | – | 43.4 µM | 29.3 µM | – | – | – | – | –
CN(C)c1ccc(/C=c2\sc3nc4ccccc4n3c2=O)cc1 | > 100 µM | > 100 | > 100 µM | > 100 µM | > 100 µM | – | – | – | – | –
O=C1C(Cl)=C(NCc2ccco2)C(=O)c2ccccc21 | – | – | – | – | – | 10.1 µM | 6.27 µM | 3.89 µM | 50.7 µM | GI50 (HS 578T breast): 3.2 µM; GI50 (DU-145 prostate): 2.6 µM; GI50 (MDA-MB-435): 2.06 µM; GI50 (BT-549 breast): 22 µM
